Source: patent publication US6358885B1, “Substituted phenylheterocyclic herbicides” (Mississippi State University, priority 1992, dated 2002)

Assays:
rape = assay: Test B preemergence/postemergence greenhouse plant response rating 0 to 10; format: in vivo, Brassica napus; settings: 0 to 10 scale
Procedure, shortened: (§1)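 Test chemicals, dissolved in a non-phytotoxic solvent, were applied to soil at planting and, at the same time, over foliage of seedlings at the one to four leaf stage.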

wild buckwheat = assay: Test C preemergence/postemergence greenhouse plant response rating 0 to 100; format: in vivo, Polygonum convolvulus; settings: POSTEMERGENCE; for Plant response rating, Wild buckwheat: 0 to 100 scale
Procedure, shortened: (§2)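 Compounds in non-phytotoxic solvent applied preemergence to sandy loam one day after planting, postemergence at the 1–4 leaf stage, or to ~2.5 cm floodwater over silt loam.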

crabgrass = assay: Test B preemergence/postemergence greenhouse plant response rating 0 to 10; format: in vivo, Digitaria spp.; settings: 0 to 10 scale
Procedure, shortened: as §1

wild oat = assay: Test C preemergence/postemergence greenhouse plant response rating 0 to 100; format: in vivo, Avena fatua; settings: POSTEMERGENCE; for Plant response rating, Wild oat: 0 to 100 scale
Procedure, shortened: as §2

wheat = assay: as above; format: in vivo, Triticum aestivum; settings: POSTEMERGENCE; for Plant response rating, Wheat: 0 to 100 scale
Procedure, shortened: as §2

morningglory = assay: as above; format: in vivo, Ipomoea hederacea; settings: POSTEMERGENCE; for Plant response rating, Morningglory: 0 to 100 scale
Procedure, shortened: as §2

rice = assay: Test C flood test plant response rating 0 to 100; format: in vivo, Oryza sativa; settings: for Plant response rating Rice Japonica: flood test species listed under POSTEMERGENCE, 0 to 100 scale
Procedure, shortened: as §2

giant foxtail = assay: Test B preemergence/postemergence greenhouse plant response rating 0 to 10; format: in vivo, Setaria faberii; settings: 0 to 10 scale
Procedure, shortened: as §1

purple nutsedge = assay: as above; format: in vivo, Cyperus rotundus; settings: 0 to 10 scale
Procedure, shortened: as §1

barnyardgrass = assay: as above; format: in vivo, Echinochloa crus-galli; settings: 0 to 10 scale
Procedure, shortened: as §1

corn = assay: Test C preemergence/postemergence greenhouse plant response rating 0 to 100; format: in vivo, Zea mays; settings: POSTEMERGENCE; for Plant response rating, Corn: 0 to 100 scale
Procedure, shortened: as §2

blackgrass = assay: Test B preemergence/postemergence greenhouse plant response rating 0 to 10; format: in vivo, Alopecurus myosuroides; settings: 0 to 10 scale
Procedure, shortened: as §1

Which “Plant response rating, Rape” value (rape; POSTEMERGENCE, Rate 10 g/ha) does the source give for `C#CC(C)N1C(=O)COc2cc(F)c(-c3nn4c(c3Cl)CCCC4)cc21` (stereo not drawn) [Compound 50] here?
The value was 9.

And the “Plant response rating, Rape” value (rape; POSTEMERGENCE, Rate 50 g/ha)?
The value was 10.

And the “Plant response rating, Rape” value (rape; PREEMERGENCE, Rate 50 g/ha)?
The value was 8.

And the “Plant response rating, Wild buckwheat” value (wild buckwheat; 62 g/ha)?
The value was 100.

What about the “Plant response rating, Wild buckwheat” value (wild buckwheat; 250 g/ha) of the same compound?
The value was 100.

What about the “Plant response rating (0 to 100), Wild buckwheat” value (wild buckwheat; Rate 1 g/ha) of the same compound?
The value was 0.

What about the “Plant response rating (0 to 100), Wild buckwheat” value (wild buckwheat; Rate 4 g/ha) of the same compound?
The value was 20.

What about the “Plant response rating (0 to 100), Wild buckwheat” value (wild buckwheat; Rate 16 g/ha) of the same compound?
The value was 80.

And the “Plant response rating, Crabgrass” value (crabgrass; POSTEMERGENCE, Rate 10 g/ha)?
The value was 3.

And the “Plant response rating, Crabgrass” value (crabgrass; POSTEMERGENCE, Rate 50 g/ha)?
Its value is 4.

What about the “Plant response rating, Crabgrass” value (crabgrass; PREEMERGENCE, Rate 10 g/ha) of the same compound?
Its value is 0.

And the “Plant response rating, Crabgrass” value (crabgrass; PREEMERGENCE, Rate 50 g/ha)?
The value was 0.

What about the “Plant response rating, Wild oat” value (wild oat; 62 g/ha) of the same compound?
Its value is 30.

What about the “Plant response rating, Wild oat” value (wild oat; 250 g/ha) of the same compound?
The value was 50.

And the “Plant response rating (0 to 100), Wild oat” value (wild oat; Rate 1 g/ha)?
Its value is 10.

What about the “Plant response rating (0 to 100), Wild oat” value (wild oat; Rate 4 g/ha) of the same compound?
The value was 20.

And the “Plant response rating (0 to 100), Wild oat” value (wild oat; Rate 16 g/ha)?
The value was 20.

And the “Plant response rating, Wheat” value (wheat; 62 g/ha)?
The value was 50.

And the “Plant response rating, Wheat” value (wheat; 250 g/ha)?
Its value is 60.

And the “Plant response rating (0 to 100), Wheat” value (wheat; Rate 1 g/ha)?
Its value is 0.

And the “Plant response rating (0 to 100), Wheat” value (wheat; Rate 4 g/ha)?
Its value is 20.

And the “Plant response rating (0 to 100), Wheat” value (wheat; Rate 16 g/ha)?
The value was 30.

What about the “Plant response rating, Morningglory” value (morningglory; 62 g/ha) of the same compound?
Its value is 100.

And the “Plant response rating, Morningglory” value (morningglory; 250 g/ha)?
Its value is 100.

What about the “Plant response rating (0 to 100), Morningglory” value (morningglory; Rate 1 g/ha) of the same compound?
Its value is 50.

And the “Plant response rating (0 to 100), Morningglory” value (morningglory; Rate 4 g/ha)?
The value was 70.

And the “Plant response rating (0 to 100), Morningglory” value (morningglory; Rate 16 g/ha)?
Its value is 100.

What about the “Plant response rating (0 to 100), Rice Japonica” value (rice; POSTEMERGENCE section, flood test, Rate 4 g/ha) of the same compound?
The value was 25.

And the “Plant response rating (0 to 100), Rice Japonica” value (rice; Rate 16 g/ha, under POSTEMERGENCE head (flood test species))?
The value was 60.

What about the “Plant response rating Rice Japonica” value (rice; 62 g/ha) of the same compound?
The value was 65.

What about the “Plant response rating Rice Japonica” value (rice; 250 g/ha) of the same compound?
The value was 90.

What about the “Plant response rating, Giant foxtail” value (giant foxtail; POSTEMERGENCE, Rate 10 g/ha) of the same compound?
The value was 4.

What about the “Plant response rating, Giant foxtail” value (giant foxtail; POSTEMERGENCE, Rate 50 g/ha) of the same compound?
The value was 4.

And the “Plant response rating, Giant foxtail” value (giant foxtail; PREEMERGENCE, Rate 10 g/ha)?
The value was 0.

And the “Plant response rating, Giant foxtail” value (giant foxtail; PREEMERGENCE, Rate 50 g/ha)?
Its value is 3.

What about the “Plant response rating, Nutsedge” value (purple nutsedge; POSTEMERGENCE, Rate 10 g/ha) of the same compound?
The value was 4.

And the “Plant response rating, Nutsedge” value (purple nutsedge; POSTEMERGENCE, Rate 50 g/ha)?
Its value is 5.

What about the “Plant response rating, Nutsedge” value (purple nutsedge; PREEMERGENCE, Rate 50 g/ha) of the same compound?
Its value is 0.

What about the “Plant response rating, Barnyardgrass” value (barnyardgrass; POSTEMERGENCE, Rate 10 g/ha) of the same compound?
Its value is 3.

What about the “Plant response rating, Barnyardgrass” value (barnyardgrass; POSTEMERGENCE, Rate 50 g/ha) of the same compound?
The value was 4.

What about the “Plant response rating, Barnyardgrass” value (barnyardgrass; PREEMERGENCE, Rate 10 g/ha) of the same compound?
The value was 0.

And the “Plant response rating, Barnyardgrass” value (barnyardgrass; PREEMERGENCE, Rate 50 g/ha)?
Its value is 0.

What about the “Plant response rating, Corn” value (corn; 62 g/ha) of the same compound?
Its value is 50.

What about the “Plant response rating, Corn” value (corn; 250 g/ha) of the same compound?
Its value is 60.

And the “Plant response rating (0 to 100), Corn” value (corn; Rate 1 g/ha)?
The value was 20.

What about the “Plant response rating (0 to 100), Corn” value (corn; Rate 4 g/ha) of the same compound?
The value was 30.

What about the “Plant response rating (0 to 100), Corn” value (corn; Rate 16 g/ha) of the same compound?
The value was 40.

And the “Plant response rating, Blackgrass” value (blackgrass; POSTEMERGENCE, Rate 10 g/ha)?
The value was 6.

And the “Plant response rating, Blackgrass” value (blackgrass; POSTEMERGENCE, Rate 50 g/ha)?
Its value is 6.

And the “Plant response rating, Blackgrass” value (blackgrass; PREEMERGENCE, Rate 10 g/ha)?
Its value is 4.

What about the “Plant response rating, Blackgrass” value (blackgrass; PREEMERGENCE, Rate 50 g/ha) of the same compound?
Its value is 6.
